Results as given in publication PMC3772838, “Preclinical Development of a Novel Class of CXCR4 Antagonist Impairing Solid Tumors Growth and Metastases” (PLoS ONE, 2013).
Bridges are numbered along the chain shown (N, C = ends). Where no end group is shown, it is not given here.

Key:
[1] = system: CXCR4; assay: Mobilization of hematopoietic precursors and neutrophils; type: in vivo; settings: DBA/2 mouse; for duration of mobilization effect compared to AMD3100: preliminary; for stem cell and neutrophil mobilization relative to AMD3100: preliminary evidence
Excerpt: The development of CXCR4 inhibitors is of increasing interest with AMD3100 (Plerixafor) having been approved by the FDA for stem cell mobilization, [39]. We evaluated peptides R, I and S for their ability to mobilize hematopoietic precursors in a DBA/2 mouse model in a CXCR4 dependent manner.

[2] = system: CCRF-CEM human T-Leukemia cells; assay: CCRF-CEM cell migration; type: cell-based; settings: Figure S4
Experimental: [The procedure below names another cell line; the source lists this cell line under the same test.] Migration was assayed in 24-well Transwell chambers (Corning Inc., Corning, NY) using inserts with an 8-µm pore membrane. Membranes were precoated with collagen (human collagen type I/III) and fibronectin (20 µg/mL each). PES43 cells were placed in the upper chamber (2.5×10^5 cells/well) in IMDM containing 1% BSA (migration media) in the presence of AMD3100 or peptides; 100 ng/mL CXCL12 was added to the lower chamber. After 16 h incubation, cells on the upper surface of the filter were removed using a cotton wool swab; migration of cells in migration media alone was compared with migration in media containing CXCL12. The cells were counted in ten different fields (original magnification ×40). The migration index was defined as the ratio between migrating cells in the experimental group and migrated cells in the control group. For the wound closure assay, tested cells were allowed to reach confluence in six-well plates containing serum-depleted growth medium and scratched with pipette tips to make wounds. The wound closure was observed microscopically 6 hours post-wounding (OKO Time Lapse).
(TIF) Click here for additional data file.

| Substance | duration of mobilization effect compared to AMD3100 [1] | stem cell and neutrophil mobilization relative to AMD3100 [1] | CCRF-CEM migration [2] |
| --- | --- | --- | --- |
| Arg-Ala-[Cys-Arg-Phe-Phe-Cys] (RACRFFC; disulfide 3-7) [Peptide R, CXCL12-mimetic disulfide-cyclic peptide] | more durable | as potent stem cell and neutrophil mobilization as does AMD3100 | inhibited CCRF-CEM human T-Leukemia cells migration in a dose-dependent manner |
| Arg-Ala-[Cys-Arg-His-Trp-Cys] (RACRHWC; disulfide 3-7) [Peptide S, CXCL12-mimetic disulfide-cyclic peptide] | more durable | as potent stem cell and neutrophil mobilization as does AMD3100 |  |
| [Cys-Trp-His-Arg-Cys] (CWHRC; disulfide 1-5) [Peptide I, v-MIP-II mimetic disulfide-cyclic peptide] | more durable | as potent stem cell and neutrophil mobilization as does AMD3100 |  |
